Entries after “also recorded” stand apart in the source; their conditions may differ.
Tested on: patients with stable type 2 diabetes and hypertension
Experiment: Randomized placebo-controlled Phase 2a study of 2 dose regimens (NCT03091920), metabolic assessments
Type: in vivo, human
Conditions: for Apolipoprotein B Change LS Mean / Apolipoprotein B LS Mean Diff (placebo adjusted): serum; for serum triglycerides LS Mean Diff (placebo adjusted) / serum triglycerides LS Mean reduction from baseline: Day 15
Description: The serum ApoB level was determined using microsphere-based HSP-ApoB assay, consisting of using antigen-specific antibodies optimized in a capture-sandwich format. 5 μL of a diluted mixture of capture-antibody microspheres were mixed with 5 μL bloker and 10 μL standard, pre-diluted sample, or control in a hard-bottom microtiter plate. Plama and serum samples were diluted of the appropriate dilution. The plate was incubated for 1 hour at room temperature. 10 μL biotinylated detection antibody was added to each well, thoroughly-mixed and incubated for 1 hour. 10 μL diluted Streptavidin-phycoerythrin was added to each well, thoroughly mixed, and incubated for 60 minutes. A filter-membrane microtiter plate was pre-wetted by adding 100 μL wash buffer followed by aspiration via a vaccum manifoled device. The reaction contents of the hard-bottom plate were then transferred to the respective wells of the filter plate. All wells were vacuum aspirated and the contents were washed twice with 100 μL wash buffer. After the last wash, 100 μL wash buffer was added to each well, and the washed microspheres were resuspended with thorough mixing. The plate was then analyzed on the Luminex platform.
Plasma ADMA concentrations were determined by liquid chromatography and tandem mass spectrometry (LC-MS/MS). Plasma samples of the patients were collected in a purple-top container with K2 EDTA anticoagulant. The tube was filled completely and the sample was mixed well and separated by centrifugation. A minium volume of 0.20 mL was needed for testing and the plasma sample was extracted by a simple protein precipation. The supernatant was then transferred to a diluent before analysis. The extract was analyzed using liquid chromatography (LC) with tandem mass spectrometry (MS/MS). The standard curve was 10.0 ng/mL to 1000.0 ng/mL.
The primary objectives of this clinical study (ClinicalTrials.gov Identifier: NCT03091920) were to compare the safety, tolerability, PK profile, and PD effects of 2 treatment regimens of Compound I tablet (40 mg per day, as 20 mg BID or as 40 mg QD) administered orally for 2 weeks to patients with stable type 2 diabetes mellitus and hypertension. Patients in this trial were on stable medications for glucose control (blood glucose lowering medication, antihyperglycemics) and hypertension (antihypertensives). Secondary measurements included assessment of fasting glucose levels, fasting insulin levels, hemoglobin A1C (HbA1C) levels, serum cholesterol levels, ApoB levels, HOMA-IR, ADMA concentrations, serum triglyceride levels, BMI, liver transaminases and body weight, among others.
Allocation: Randomized; Intervention Model: Parallel Assignment; Masking: Triple (Participant, Care Provider, Investigator); Masking Description: Double-Blind; Primary Purpose: Treatment
This is a randomized, double-blind, placebo-controlled study consisting of 3 distinct periods (see FIG. 30).
13 male patients and 13 female patientes with stable type 2 diabetes and hypertension were enrolled. Patients were randomized in a 5:5:3 ratio (QD:BID:Placebo) to receive 1 of 2 Compound I treatment regimens or placebo (all regimens were masked) as outlined in the table above.
Clinic Period: The Clinic Period began at Check-in on Day-2 (2 days before dosing) and ended at the time of Discharge on Day 15. During the 17-day Clinic Period, patients were confined to the Study Center and received a standard diet for diabetics. Patients who met eligibility criteria based on Screening Visit assessments were admitted to the Study Center on Day-2 for baseline procedures. On the morning of Day 1 (there is no Day 0), eligible patients were randomized in a 5:5:3 ratio to 1 of 3 masked treatment regimens: QD/QD, BID/QD, or PBO/PBO. On Days 1 to 14, patients received a morning (AM) dose and an evening (PM) dose.
Compound I was administered as multiples of a 5 mg oral tablet dosage form. Placebo was administered as multiples of a 5 mg tablet. […]

[1] = 40 mg, regimens combined, 14 days
[2] = subgroup of 18 patients on concomitant statin therapy, regimens combined, 14 days

Question: With `OC(CNc1nc(-c2cc(-c3ccon3)n(Cc3ccccc3F)n2)ncc1F)(C(F)(F)F)C(F)(F)F` [Compound I] as the compound, how does the HDL cholesterol levels (40 mg total daily dose, over the trial) read?
Answer: remained unchanged; also recorded: remained closed to baseline; also recorded: no changes

Question: What about the “mean serum ALT decrease from baseline” value [1] of the same compound?
Answer: 4.9 IU/L

Question: What about the “mean serum AST decrease from baseline” value [1] of the same compound?
Answer: 4.5 IU/L

Question: And the “mean serum GGT decrease from baseline” value [1]?
Answer: 2.4 U/L

Question: And the “Mean Apo-B levels decline in treated patients” value (14 days)?
Answer: approximately 17%

Question: And the “HbA1C levels over placebo” value (14 days of treatment)?
Answer: No meaningful improvements

Question: And the “plasma fasting glucose LS Mean reduction from baseline” value (BID/QD (20 mg BID days 1-7; 40 mg QD days 8 to 14), day 15)?
Answer: -35.3 mg/dL

Question: And the “Apolipoprotein B Change LS Mean” value (BID/QD (N = 10), day 15)?
Answer: -219.4 µg/mL

Question: What about the “serum triglycerides LS Mean Diff (placebo adjusted)” value (shortened to “serum triglycerides LS Mean Diff”) (BID/QD) of the same compound?
Answer: -14.3 mg/dL

Question: And the “serum triglycerides LS Mean reduction from baseline” value (BID/QD)?
Answer: -46.4 mg/dL

Question: What about the “LDL cholesterol Mean Diff (SE), placebo adjusted” value (“LDL cholesterol Mean Diff (SE)” below) (BID/QD, day 15) of the same compound?
Answer: −20.2 (9.2) mg/dL

Question: What about the “LDL cholesterol Mean reduction from baseline (SE), least square” value (BID/QD, day 15) of the same compound?
Answer: −14.0 (5.6) mg/dL

Question: What about the “plasma fasting glucose LS Mean Diff (placebo adjusted)” value (from here on “plasma fasting glucose LS Mean Diff”) (BID/QD, day 15) of the same compound?
Answer: -15.6 mg/dL

Question: What about the “serum cholesterol LS Mean Diff (placebo adjusted)” value (from here on “serum cholesterol LS Mean Diff”) (BID/QD, day 15) of the same compound?
Answer: -20.9 mg/dL

Question: What about the “serum cholesterol LS Mean reduction from baseline” value (BID/QD, day 15) of the same compound?
Answer: -20.2 mg/dL

Question: What about the “serum LDL cholesterol reduced when compared to placebo” value (“serum LDL cholesterol reduced when” for short) (BID/QD, day 15, after 14 days of treatment) of the same compound?
Answer: about 20 mg/dL

Question: And the “serum LDL cholesterol reduced when” value (BID/QD, day 15, % of total cholesterol)?
Answer: 13%

Question: And the “Apolipoprotein B LS Mean Diff (placebo adjusted)” value (BID/QD, day 15)?
Answer: -168.9 µg/mL

Question: And the “plasma fasting glucose LS Mean reduction from baseline” value (Combined group (BID/QD and QD/QD), day 15)?
Answer: -32.5 mg/dL

Question: What about the “serum triglycerides LS Mean Diff” value (Combined group) of the same compound?
Answer: -14.2 mg/dL

Question: What about the “serum triglycerides LS Mean reduction from baseline” value (Combined group) of the same compound?
Answer: -46.2 mg/dL

Question: And the “LDL cholesterol Mean Diff (SE)” value (Combined group, day 15)?
Answer: −20.2 (8.3) mg/dL

Question: What about the “LDL cholesterol Mean reduction from baseline (SE), least square” value (Combined group, day 15) of the same compound?
Answer: −13.9 (4.0) mg/dL

Question: What about the “plasma fasting glucose LS Mean Diff” value (Combined group, day 15) of the same compound?
Answer: -12.8 mg/dL

Question: What about the “serum cholesterol LS Mean Diff” value (Combined group, day 15) of the same compound?
Answer: -25.5 mg/dL

Question: And the “serum cholesterol LS Mean reduction from baseline” value (Combined group, day 15)?
Answer: -24.7 mg/dL

Question: And the “Apolipoprotein B Change LS Mean” value (Overall 40 mg Total Daily Dose (N = 20), day 15)?
Answer: -169.5 µg/mL

Question: What about the “plasma fasting glucose LS Mean reduction from baseline” value (QD/QD (40 mg QD days 1 to 14), day 15) of the same compound?
Answer: -29.6 mg/dL

Question: What about the “Apolipoprotein B Change LS Mean” value (QD/QD (N = 10), day 15) of the same compound?
Answer: -119.6 µg/mL

Question: And the “serum triglycerides LS Mean Diff” value (QD/QD)?
Answer: -14.0 mg/dL

Question: And the “serum triglycerides LS Mean reduction from baseline” value (QD/QD)?
Answer: -46.0 mg/dL

Question: What about the “LDL cholesterol Mean Diff (SE)” value (QD/QD, day 15) of the same compound?
Answer: −19.9 (9.2) mg/dL

Question: What about the “LDL cholesterol Mean reduction from baseline (SE), least square” value (QD/QD, day 15) of the same compound?
Answer: −13.7 (5.6) mg/dL

Question: What about the “plasma fasting glucose LS Mean Diff” value (QD/QD, day 15) of the same compound?
Answer: -10.0 mg/dL

Question: And the “serum cholesterol LS Mean Diff” value (QD/QD, day 15)?
Answer: -30.1 mg/dL

Question: What about the “serum cholesterol LS Mean reduction from baseline” value (QD/QD, day 15) of the same compound?
Answer: -29.3 mg/dL

Question: What about the “serum LDL cholesterol reduced when” value (QD/QD, day 15, after 14 days of treatment) of the same compound?
Answer: about 20 mg/dL

Question: What about the “serum LDL cholesterol reduced when” value (QD/QD, day 15, % of total cholesterol) of the same compound?
Answer: 13%

Question: And the “Apolipoprotein B LS Mean Diff (placebo adjusted)” value (QD/QD, day 15)?
Answer: -69.1 µg/mL

Question: What about the “fasting plasma insulin levels over placebo” value (all of 26 patients, including those on insulin therapy) of the same compound?
Answer: no meaningful improvements

Question: What about the “ADMA plasma concentration decrease from baseline” value (combined Compound I group, 14 day study, baseline of 105 ng/ml) of the same compound?
Answer: 8.7 ng/mL

Question: What about the “ADMA plasma concentration mean reduction adjusted to placebo” value (combined group, after 14 days of treatment) of the same compound?
Answer: about 11 ng/mL

Question: What about the “serum ALT change compared to baseline” value (over 14 days) of the same compound?
Answer: −4.9 IU/L

Question: What about the “serum ALT reduction compared to baseline” value (over 14 days) of the same compound?
Answer: 20%

Question: What about the “serum AST change compared to baseline” value (over 14 days) of the same compound?
Answer: −4.5 IU/L

Question: And the “serum AST reduction compared to baseline” value (over 14 days)?
Answer: 20%

Question: What about the “weight or BMI, adjusted to placebo” value (over the 14 days of treatment) of the same compound?
Answer: No meaningful changes

Question: What about the “fasting plasma insulin change adjusted to placebo” value (patients not on insulin) of the same compound?
Answer: -13 pmol/L

Question: What about the “reduction in HOMA-IR from baseline” value (patients not taking concomitant insulin (12 on Compound I), 14 days) of the same compound?
Answer: 36%

Question: What about the “reduction in HOMA-IR adjusted to placebo” value (patients not taking concomitant insulin, 14 days) of the same compound?
Answer: 23%

Question: What about the “apolipoprotein B decline, Compound I vs. PBO-treated patients” value (post-hoc analysis, 14 days) of the same compound?
Answer: -119 µg/mL

Question: And the “LDL cholesterol decrease in treated vs. placebo patients” value [2]?
Answer: -16 mg/dL

Question: What about the “total cholesterol decrease in treated vs. placebo patients” value [2] of the same compound?
Answer: -17 mg/dL

Question: What about the mean decrease of plasma blood glucose relative to placebo (subgroup using only oral antihyperglycemic agents without insulin, regimens combined, 14 days) of the same compound?
Answer: -19 mg/dL

Source: patent US11389449B2, “Treatment of metabolic syndrome with an sGC stimulator” (Cyclerion Therapeutics, Inc., priority 2017, dated 2022)
